In patent US8999983B2, “Modulators of Hec1 activity and methods therefor” (Taivex Therapeutics Corporation, priority 2011, dated 2015):

What was measured:
[1] = Pharmacokinetics of salt forms, single IV dose; type: in vivo, CD-1 mice; conditions: male, CD-1, mouse
Description: (§1) Pharmacokinetics of Hec1 Inhibitor Salts: Pharmacokinetic comparison of different salt forms (HCl, tosylate, mesylate salt) was studied for the compounds as shown in Table 3 below:
(§2) Formulations for both PO (oral) and IV (intravenous) doses were prepared in saline with 2% Tween 80 and 10% DMSO. Concentrations were adjusted based on the molecular weights of the freebase and salts.
IV studies: A single dose of 1 mg/kg of each of the three test articles was IV administered to 21 healthy male CD-1 mice (weight ranged from 18-27 g). The dosing volume was 5 mL/kg. Food and water were available to all animals during the experiment period.
(§3) Three mice were bled (ca. 1 mL) at each timepoint (0.5, 1, 1.5, 2, 4, 6, and 24 hours post-dose for PO study and 0.083, 0.5, 1, 2, 4, 6, and 24 hours post-dose for IV study) by cardiac puncture and blood was collected into K3EDTA blood collection tubes. Blood samples were centrifuged immediately at 4° C. at 3000 rpm for 10 min. Plasma samples were transferred and stored at −20° C. prior to analysis.
(§4) The plasma concentrations of 110095 (compound 27 of Table 1, the free base of all three test articles) were determined by LC MS/MS in the positive MRM mode; all doses were normalized to the freebase (110095) concentration. The mean plasma concentration from each time point (n=3) were used to calculate the PK parameters using a non-compartmental model. Pharmacokinetic parameters (Cmax, Tmax, t½, AUC, etc.) were calculated using WinNonlin Software (version 5.3, Pharsight, Sunnyvale Calif. 94086 USA), the results and absolute bioavailability results are presented in Table 6. Table 4 lists mean concentrations (ng/mL) of 110095 in mouse plasma following a single oral dose of 10 mg/kg of 110095-HCl-1007, 110095-03-03 or 110095-02-02 to CD-1 mice, and Table 5 lists mean concentrations (ng/mL) of 110095 in mouse plasma following a single IV dose of 1 mg/kg of 110095-HCl-1007, 110095-03-03 or 110095-02-02 to CD-1 mice. Table 6 lists PK parameters and absolute bioavailability result of 110095-HCl-1007, 110095-03-03 or 110095-02-02 in CD-1 mice.

[2] = Pharmacokinetics of salt forms, single oral dose; type: in vivo, CD-1 mice; conditions: male, CD-1, mouse, plasma
Description: as §1, §2
PO studies: A single dose of 10 mg/kg of each of the three test compounds was orally administered to 21 healthy male CD-1 mice (weight ranged from 18-27 g). The dosing volume was […]. Animals were fasted approximately 16 hours prior to dosing until 4 hours post dosing. Water was available to all animals during the experiment period.
as §3, §4

MDA-MB-468 = assay: Antiproliferation assay (MTS), MDA-MB-468 cells; type: cell-based; conditions: Homo sapiens, MDA-MB-468, 96 h, Table 1, read-out: Antiproliferative IC50 MDA-MB-468
Description: (§5) Cells were grown at 37° C. in a humidified atmosphere consisting of 5% CO2 and 95% air.
(§6) Antiproliferation Assays: Cells were plated in a 96-well culture plate with 2000-8000 cells per well. The compounds were prepared in DMSO and used to treat cells in a final concentration of less than 1% DMSO. Compound treatment started after overnight incubation of cells (T0). […] Compound was added to the plate in triplicate wells, and the plates were then incubated for 96 hours. DMSO (compound diluent) was also included and added to the plate in control wells. Cell viability was then determined by MTS assay using the CellTiter 96® aqueous non-radioactive cell proliferation assay system (Promega, Madison, Wis. 53711 USA). A plate reader (Vmax, Molecular Devices, Sunnyvale Calif. 94089 USA) was used to determine the optical densities, and the results were used to deduce concentration-response curves. […] The results were analyzed using linear regression software (GraphPad Prism 5; GraphPad Software Inc. La Jolla Calif. 92037 USA).

Hela = assay: Antiproliferation assay (MTS), HeLa cells; type: cell-based; conditions: Homo sapiens, 96 h, Table 1, read-out: Antiproliferative IC50 Hela
Description: as §5, §6

MDA-MB-231 = assay: Antiproliferation assay (MTS), MDA-MB-231 cells; type: cell-based; conditions: Homo sapiens, MDA-MB-231, 96 h, read-out: Antiproliferative IC50 MDA-MB-231, Table 1
Description: as §5, §6

[3] = system: caspase-3, PARP, Mcl-1 and XIAP; assay: Immunoblot of apoptotic pathway proteins; type: cell-based; conditions: 1 μM, 24 or 48 hours
Description: Immunoblot Analysis: For immunoblotting experiments, cells were plated in a 6-well culture plate and cultured overnight. Cells were incubated with the test compounds for the indicated time and whole cell lysate was harvested by adding 1×SDS-PAGE Sample Buffer (62.5 mM Tris-HCl (pH 6.8 at 25° C.), 2% w/v SDS, 10% glycerol, 50 mM DTT, and 0.01% w/v bromophenol blue or phenol red). Proteins were separated by SDS-PAGE electrophoresis and transferred to PVDF membrane. Protein expression was immunoblotted using various primary antibodies and detected using Immobilon Western Chemiluminescent HRP Substrate (Millipore, Billerica Mass. 01821 USA). Antibodies used include anti-Cleaved Caspase3, (Rabbit, Cell Signaling Technology, Danvers Mass. 01923 USA); anti-PARP (Rabbit, Cell Signaling Technology, Danvers Mass. 01923 USA); anti-MCL-1 (mouse, BD Biosciences, San Jose Calif. 95131 USA); anti-XIAP (rabbit, Cell Signaling Technology, Danvers Mass. 01923 USA); anti-Bcl-2 (mouse, Santa Cruz Biotechnology, Santa Cruz Calif. 95060); anti-Cyclin BI (mouse, BD Biosciences, San Jose Calif. 95131 USA); anti-Cyclin D1 (mouse, Santa Cruz Biotechnology, Santa Cruz Calif. 95060); Anti-Nek2 (mouse, BD Biosciences, San Jose Calif. 95131 USA); Anti-HEC1, (rabbit, GeneTex, Inc., Irvine Calif. 92606 USA); and anti-actin (mouse, Millipore, Billerica Mass. 01821 USA).
100 nM Taxol was used as a positive control drug for apoptosis.

K562 = assay: Antiproliferation assay (MTS), K562 cells; type: cell-based; conditions: Homo sapiens, K562, 96 h, Table 1, read-out: Antiproliferative IC50 K562
Description: as §5, §6

Caco-2 cell monolayers = assay: Caco-2 cell permeability; type: in vitro ADME; conditions: 10 μM, 2 hour, both directions
Description: Here, Caco-2 cell line (cat. HTB-37TM) was purchased from the ATCC. Cells were cultivated in T-75 flasks in a cell culture incubator set at 37° C., 5% CO2, 95% relative humidity. Cells were allowed to grow to reach 80-90% confluence before seeding. […] The cells were grown in culture medium consisting of Dulbecco's modified Eagle's medium supplemented with 10% fetal bovine serum, 100 U/mL penicillin and 100 μg/mL streptomycin. The culture medium was replaced every 2 days and the cells were maintained at 37° C., 95% relative humidity and 5% CO2.
For a quality integrity control of the monolayers of seeded cells, the Lucifer yellow (LY) transport experiment was performed to evaluate monolayer integrity. As for a quality control of each filter, the transepithelial electrical resistance (TEER) was measured before the start of and at the end of transport experiments. Physiologically and morphologically well developed Caco-2 cell monolayers with TEER values greater than 400 Ωcm^2 were used for the studies.
The solution volumes in apical and basolateral chambers were set to 0.4 and 0.6 ml respectively. Samples were taken from both the apical and basolateral compartment at the end of the 2 hour incubation at 37° C. […] The excitation and emission wavelengths were 490 nm and 530 nm, respectively.

hERG potassium channels = biological target: T1, hERG potassium channels (Homo sapiens, UniProt Q12809); assay: [3H]Astemizole competitive binding assay, hERG; conditions: [3H]-astemizole displacement, hERG membrane protein
T1 construct: purchased PerkinElmer
Description: Here, [3H] Astemizole competitive binding assays were performed to determine the ability of compounds to displace the known radioligand [3H]-astemizole from the hERG potassium channels, following standard protocol with minor modifications. In brief, assays were performed in 200 μl of binding buffer (50 mM HEPES, pH 7.4, 60 mM KCl, and 0.1% BSA) containing 1.5 nM of [3H]astemizole, 3 μg/well of hERG membrane protein (PerkinElmer), and TAI-1 (in 1% DMSO final concentration) at 27° C. for 60 min. Nonspecific binding (NSB) was determined in the presence of 10 μM astemizole. […] Binding was terminated by rapid filtration onto polyethyleneimine-presoaked, buffer-washed UniFilter-96, GF/C (Perkin Elmer) using a vacuum manifold (Porvair Sciences). Captured radiolabel signal was detected using TopCount NXT (Perkin Elmer). […] All results are derived from two independent experiments.

T1 sequence (Q12809 whole entry): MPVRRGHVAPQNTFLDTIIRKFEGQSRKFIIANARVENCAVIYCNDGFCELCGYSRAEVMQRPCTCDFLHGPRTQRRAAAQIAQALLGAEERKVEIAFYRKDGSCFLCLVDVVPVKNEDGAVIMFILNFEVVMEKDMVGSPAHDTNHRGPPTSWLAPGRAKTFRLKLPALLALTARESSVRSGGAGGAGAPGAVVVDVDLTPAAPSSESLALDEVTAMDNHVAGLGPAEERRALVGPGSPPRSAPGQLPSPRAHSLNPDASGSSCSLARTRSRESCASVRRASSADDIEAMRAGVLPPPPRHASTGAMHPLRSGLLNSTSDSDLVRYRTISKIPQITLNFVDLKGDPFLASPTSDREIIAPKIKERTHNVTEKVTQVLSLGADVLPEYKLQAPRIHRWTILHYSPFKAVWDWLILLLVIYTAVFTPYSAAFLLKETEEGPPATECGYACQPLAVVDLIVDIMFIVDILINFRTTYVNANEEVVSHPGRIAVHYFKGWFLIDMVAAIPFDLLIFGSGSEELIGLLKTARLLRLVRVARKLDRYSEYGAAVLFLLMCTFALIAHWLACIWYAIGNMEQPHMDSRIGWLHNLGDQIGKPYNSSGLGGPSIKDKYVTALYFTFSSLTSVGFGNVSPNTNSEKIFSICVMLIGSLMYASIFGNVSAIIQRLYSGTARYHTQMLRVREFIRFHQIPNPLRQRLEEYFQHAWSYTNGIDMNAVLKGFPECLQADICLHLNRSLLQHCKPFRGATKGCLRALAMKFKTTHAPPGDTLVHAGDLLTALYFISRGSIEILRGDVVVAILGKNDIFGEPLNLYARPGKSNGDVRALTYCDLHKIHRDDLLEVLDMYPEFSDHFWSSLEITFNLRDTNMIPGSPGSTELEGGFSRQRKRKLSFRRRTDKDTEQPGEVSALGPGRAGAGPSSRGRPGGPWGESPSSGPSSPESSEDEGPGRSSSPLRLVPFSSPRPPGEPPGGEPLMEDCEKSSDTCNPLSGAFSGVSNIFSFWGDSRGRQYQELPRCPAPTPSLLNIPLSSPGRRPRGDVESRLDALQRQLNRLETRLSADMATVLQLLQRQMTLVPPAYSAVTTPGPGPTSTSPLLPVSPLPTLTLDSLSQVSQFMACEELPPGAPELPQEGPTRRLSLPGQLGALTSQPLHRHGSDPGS

SMILES: COCCOc1cnc(Sc2cc(C)c(-c3csc(NC(=O)c4ccncc4)n3)c(C)c2)cn1.Cl [110095-HCl-1007]
- AUC(0-inf) ([1]; in vivo, iv, 1 mg/kg): 3000 ng·h/mL
- AUC(0-t) ([1]; in vivo, iv, 1 mg/kg): 2980 ng·h/mL
- MRT ([1]; in vivo, iv, 1 mg/kg): 3.3 h
- half-life ([1]; in vivo, iv, 1 mg/kg): 3.61 h
- concentration at […] ([1]; plasma, IV 1 mg/kg, 0.083 h, read-out: mean concentration of 110095 in mouse plasma): 870 ng/mL
- concentration at 0.5 h ([1]; plasma, IV 1 mg/kg, 0.5 h, read-out: mean concentration of 110095 in mouse plasma): 684 ng/mL
- concentration at 1 h ([1]; plasma, IV 1 mg/kg, 1 h, read-out: mean concentration of 110095 in mouse plasma): 549 ng/mL
- concentration at 2 h ([1]; plasma, IV 1 mg/kg, 2 h, read-out: mean concentration of 110095 in mouse plasma): 422 ng/mL
- concentration at 4 h ([1]; plasma, IV 1 mg/kg, 4 h, read-out: mean concentration of 110095 in mouse plasma): 202 ng/mL
- concentration at 6 h ([1]; plasma, IV 1 mg/kg, 6 h, read-out: mean concentration of 110095 in mouse plasma): 93.2 ng/mL
- concentration at 24 h ([1]; plasma, IV 1 mg/kg, 24 h, read-out: mean concentration of 110095 in mouse plasma): 3.68 ng/mL
- AUC(0-inf) ([2]; PO 10.0 mg/kg): 25100 ng·h/mL
- AUC(0-t) ([2]; PO 10.0 mg/kg): 25100 ng·h/mL
- Cmax ([2]; PO 10.0 mg/kg): 4060 ng/mL
- MRT ([2]; PO 10.0 mg/kg): 4.11 h
- Tmax ([2]; PO 10.0 mg/kg): 1 h
- half-life ([2]; PO 10.0 mg/kg): 2.81 h
- bioavailability ([2]; PO 10.0 mg/kg vs IV 1.00 mg/kg, read-out: F % (absolute bioavailability)): 84%
- concentration at 0.5 h ([2]; PO 10 mg/kg, 0.5 h, read-out: mean concentration of 110095 in mouse plasma): 1800 ng/mL
- concentration at 1 h ([2]; PO 10 mg/kg, 1 h, read-out: mean concentration of 110095 in mouse plasma): 4060 ng/mL
- concentration at […] ([2]; PO 10 mg/kg, 1.5 h, read-out: mean concentration of 110095 in mouse plasma): 3660 ng/mL
- concentration at 2 h ([2]; PO 10 mg/kg, 2 h, read-out: mean concentration of 110095 in mouse plasma): 3560 ng/mL
- concentration at 4 h ([2]; PO 10 mg/kg, 4 h, read-out: mean concentration of 110095 in mouse plasma): 2170 ng/mL
- concentration at 6 h ([2]; PO 10 mg/kg, 6 h, read-out: mean concentration of 110095 in mouse plasma): 1140 ng/mL
- concentration at 24 h ([2]; PO 10 mg/kg, 24 h, read-out: mean concentration of 110095 in mouse plasma): 14.8 ng/mL

SMILES: Cc1cc(Sc2cnccn2)cc(C)c1-c1csc(NC(=O)c2ccnc(F)c2)n1 [Compound 19, N-{4-(2,6-Dimethyl-4-(pyrazin-2-ylthio)phenyl)thiazol-2-yl}-2-fluoroisonicotinamide]
- IC50 (MDA-MB-468): 60.1 nM
- IC50 (Hela): 35.6 nM
- IC50 (MDA-MB-231): 32 nM
- levels of apoptotic (caspase-3, PARP) and anti-apoptotic (Mcl-1, XIAP) proteins [3]: cleavage of the apoptotic proteins accompanied by down-regulation of the anti-apoptotic proteins
- IC50 (K562): 37.6 nM

SMILES: COCCOc1ccc(Oc2cc(C)c(-c3csc(NC(=O)c4ccnc(F)c4)n3)c(C)c2)cc1 [Compound 20, 2-Fluoro-N-(4-{4-(4-(2-methoxyethoxy)phenoxy)-2,6-dimethylphenyl}thiazol-2-yl)isonicotinamide]
- IC50 (MDA-MB-468): 10.4 nM
- IC50 (Hela): 10.9 nM
- IC50 (MDA-MB-231): 7.5 nM
- levels of apoptotic (caspase-3, PARP) and anti-apoptotic (Mcl-1, XIAP) proteins [3]: cleavage of the apoptotic proteins accompanied by down-regulation of the anti-apoptotic proteins
- IC50 (K562): 14.1 nM

SMILES: COCCOc1cnc(Oc2cc(C)c(-c3csc(NC(=O)c4ccncc4)n3)c(C)c2)cn1 [Compound 22, N-(4-{4-(5-(2-Methoxyethoxy)pyrazin-2-yloxy)-2,6-dimethylphenyl}thiazol-2-yl)isonicotinamide]
- Caco-2 permeability (Caco-2 cell monolayers): moderate Caco-2 permeability
- IC50 (hERG potassium channels): > 10000 nM

SMILES: COc1cnc(Sc2cc(C)c(-c3csc(NC(=O)c4ccncc4)n3)c(C)c2)cn1 [Compound 25, N-{4-(4-(5-Methoxypyrazin-2-ylthio)-2,6-dimethylphenyl)thiazol-2-yl}isonicotinamide]
- IC50 (hERG potassium channels): > 10000 nM
